Reference: patent US7375124B2, “Use of α-phenylthiocarboxylic and α-phenyloxycarboxylic acids with serum-glucose-lowering and serum-lipid-lowering activity” (Sigma-Tau Industrie Farmaceutiche Riunite S.p.A., priority 2002, dated 2008)
Where two headings read alike, the source gives them in different places. Each block holds one compound with its values, some of them ahead of it.

Columns and labels:
[1] = test system: C57BL/KsJ db/db mouse; details: in vivo
Source text: (§1) Plasma levels of glucose, insulin, triglycerides, cholesterol, free fatty acids and urea were checked for a well-matched distribution of mice in the treatment groups.
(§2) At the start of treatment the body weights of the mice were checked and arrangements were made for monitoring water and feed consumption.
(§3) In the course of the experiment, serum glucose levels, oral glucose tolerance test (OGTT) findings, a number of lipid status parameters and weight gain were monitored.

[2] = test system: C57BL/KsJ db/db mouse; assay: Antidiabetic and serum-lipid-lowering activity in the db/db mouse (Experiments I and II); details: for Glucose: blood; for Glucose / Final b.w. / Initial b.w. / AUC glucose at OGTT / Glucose (plasma) / Fructosamine (plasma) / HDL-choles. (plasma) / Triglycerides (plasma): mean ± S.E.; for Final b.w. / Initial b.w.: postabsorption condition; for Initial b.w. / Variation % (initial b.w.) vs control: initial body weight; for Variation % (AUC glucose at OGTT) vs control / AUC glucose at OGTT: OGTT glucose 3 g/kg; for Glucose (plasma): postabsorption (fasting 9 a.m. to 4.30 p.m.); for Glucose (plasma) / Variation % (fructosamine) vs control / Variation % (plasma glucose) vs control / Fructosamine (plasma) / HDL-choles. (plasma) / Triglycerides (plasma): 7.5 hours after last treatment
Source text: as §1, §2, §3

[3] = biological target: T1, mPPARαLBD/Gal4DBD (Mus musculus, UniProt P23204); assay: Transactivation assay mediated by mPPARαLBD/Gal4DBD in COS-7 cells (CAT reporter); assay type: cell-based
T1 construct: expressed in transfected cells; host or cells: COS-7 (monkey kidney fibroblasts)
T1 sequence (P23204 239-466 limits assumed): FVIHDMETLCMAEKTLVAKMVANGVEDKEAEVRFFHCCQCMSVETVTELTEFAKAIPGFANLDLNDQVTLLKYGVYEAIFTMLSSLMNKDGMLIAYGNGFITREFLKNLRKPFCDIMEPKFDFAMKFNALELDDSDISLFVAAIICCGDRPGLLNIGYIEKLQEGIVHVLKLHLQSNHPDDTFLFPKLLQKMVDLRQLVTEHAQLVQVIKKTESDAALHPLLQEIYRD
Source text: In this model a transactivation assay is used in which the expression vector mPPARαLBD/Gal4 DBD allows the synthesis by the transfected cell of a chimeric protein, in which the ligand binding domain (LBD) of PPARα is fused with the DNA binding domain (DBD) of the transcription factor GAL4 of yeast [Luckow B. et al., Nucleic Acids Res. 15, 5490 (1987)]. Simultaneously, a plasmid (pG5CAT) is transfected which contains 5 copies of the high-affinity binding site for GAL4 (also called UAS, upstream activating sequence), upstream of the viral promoter E1b fused with the CAT reporter gene [Moya-Camarena S. Y. et al., J. Lipid Res. 40 (8), 1426-33 (1999)]. This model eliminates interference by possible endogenous receptors.
This is due to the fact that the activation of E1b and the production of CAT will occur exclusively thanks to the interaction of GAL4 DBD with its own response element (UAS). Since the transcription factor GAL4 is not expressed in […] cells, transactivation of the reporter gene can take place only when, as a result of the interaction of a ligand with the LBD of PPARα, the chimeric protein PPARα/GAL4 recognises the UAS sequence on the plasmid pG5CAT. Together with the expression vector and the reporter vector the cells were also transfected with the plasmid pCH110 which provides the internal control for the efficiency of transfection and the normalisation of the results.
A monkey kidney fibroblast cell line (COS-7) was used [Elbrecht A. et al., J. Biol. Chem. 274 (12), 7913-22 (1999)]. The cells were co-transfected with the reporter vector, the expression plasmid coding for the fusion protein Gal4 DBD/PPARαLBD and the control vector pCH110. The cells were exposed to increasing concentrations of the study compounds and CAT activity was evaluated. Untreated cells were used as controls.
Monkey kidney fibroblasts (COS-7) were cultured according to the usual cell culture techniques, at 37° C. in a 5% v/v carbon dioxide atmosphere using as the growth medium DMEM (Dulbecco's modified Eagle's medium) modified with 3.7 g/l of sodium bicarbonate, 4 mM L-glutamine, 4.5 g/l of glucose, 1 mM sodium pyruvate and 10% v/v of foetal bovine serum, in the presence of streptomycin 100 μg/ml and penicillin 100 U/ml final.
The cells were co-transfected using the transfection reagent FuGENE6 (Roche), consisting of a defined mixture of lipids capable of complexing the DNA and of transporting it into the cells. Twenty-four hours prior to transfection the cells were plated at a density of 1.2×10^5 cells/well in 12-well plates and maintained at 37° C. in a 5% v/v CO2 atmosphere. […] Briefly, the transfection mixture containing 0.8 μg of the expression vector, 1.6 μg of the reporter vector, 0.8 μg of the control vector and 9 μl of the FuGENE6 reagent per well was added directly to the cells in the presence of culture medium devoid of serum. After 5 hours, the transfection medium was replaced by 1 ml of culture medium complete with serum and antibiotics in the presence or absence of the molecules to be tested at 3 different concentrations (2, 20 and 100 μM). Wy-14,643 (2 μM), a known ligand of PPARα, was used as the positive reference compound.
After 48 hours' incubation at 37° C. in a 5% v/v CO2 atmosphere, the cells were washed twice with 1 ml of phosphate buffer (PBS) and removed mechanically from the wells in TEN buffer (Tris[hydroxymethyl]aminomethane 10 mM pH 8, ethylenediamine-tetraacetic acid 1 mM pH 8, sodium chloride 0.1 M). After centrifuging for 3 minutes at 1000 rpm, the cells were resuspended in 65 μl of lysis buffer (Tris-HCl 0.25 M, pH 8) and then lysed thanks to three rapid freeze-thaw cycles. The insoluble cellular materials (debris) were removed by centrifuging at 15,000 rpm for 15 minutes at 4° C., and the supernatant was recovered and used for the CAT and β-galactosidase activity assays. […]

[4] = Experiment I, after 12 days' treatment, feeding state, approx. 15 hours after last treatment
[5] = Experiment I, after 18 days' treatment, fasting 18 hours, 6 hours after last treatment
[6] = Experiment I, after 25 days' treatment
[7] = Experiment I, db/db mice, oral twice daily, after 12 days' treatment, feeding state, approx. 15 hours after last treatment
[8] = Experiment I, final body weight after 25 days' treatment
[9] = Experiment I, after 12 days' treatment, postabsorption, 8 hours after last treatment
[10] = Experiment I, after 18 days' treatment
[11] = Experiment I, after 18 days' treatment, fasting 18 hours, 5 hours after last treatment
[12] = Experiment I, after 25 days' treatment, postabsorption
[13] = Experiment I, after 12 days' treatment, postabsorption (fasting 9 a.m. to 5 p.m.), 8 hours after last treatment
[14] = Experiment II, after 11 days' treatment, fasting 18 hours, 5 hours after last treatment
[15] = Experiment II, after 12 days' treatment
[16] = Experiment II, after 12 days' treatment, postabsorption

melting point: 101 to 103 °C
Structure (SMILES): COC(=O)C(C)(C)Sc1cccc(OCCn2c3ccccc3c3ccccc32)c1 [Example 6, methyl 2-[3-(2-(carbazol-9-yl)ethoxy)phenylthio]isobutyrate]

Variation % (final b.w.) vs control [1]: +49%
Variation % (initial b.w.) vs control [1]: +3%
Structure (SMILES): CN(CCOc1ccc(CC2SC(=O)NC2=O)cc1)c1ccccn1 (stereo not drawn) [Rosiglitazone, rosiglitazone, reference compound]
Variation % (glucose) vs control [2, 4]: −25%
Variation % (glucose) vs control [2, 5]: −35%
Variation % (HDL-cholesterol) vs control [2, 6]: −20%
Variation % (triglycerides) vs control [2, 6]: −54%
Glucose [2, 5]: 225 ± 27▪ mg/dl
Glucose [2, 7]: 365 ± 64 mg/dL
Final b.w. [2, 8]: 42.1 ± 2.5Δ g
Initial b.w. ([2]; Experiment I): 32.6 ± 1.4 g

Final b.w. [1]: 34.5 ± 1.0 g
Initial b.w. [1]: 33.3 ± 0.7 g
Variation % (final b.w.) vs control [1]: +22%
Variation % (initial b.w.) vs control [1]: +5%
Structure (SMILES): CC(C)OC(=O)C(C)(C)Oc1ccc(C(=O)c2ccc(Cl)cc2)cc1 [Fenofibrate, fenofibrate, reference compound]
Variation % (glucose) vs control [2, 4]: −4%
Variation % (glucose) vs control [2, 9]: −1%
Variation % (AUC glucose at OGTT) vs control [2, 10]: −12%
AUC glucose at OGTT [2, 11]: 45192 ± 1546 a.u.
Variation % (glucose) vs control [2, 5]: +12%
Variation % (HDL-cholesterol) vs control [2, 6]: +18%
Variation % (triglycerides) vs control [2, 6]: −30%
Glucose (plasma) [2, 6]: 553 ± 30 mg/dL
Variation % (fructosamine) vs control [2, 12]: +15%
Variation % (plasma glucose) vs control [2, 12]: +21%
Fructosamine (plasma) [2, 12]: 0.92 ± 0.02Δ mM
HDL-choles. (plasma) [2, 12]: 96.4 ± 4.2 mg/dL
Triglycerides (plasma) [2, 12]: 66.5 ± 3.5Δ mg/dl
Glucose [2, 13]: 409 ± 11 mg/dL
Glucose [2, 5]: 384 ± 20 mg/dL
Glucose [2, 7]: 466 ± 8 mg/dL

Activation of reporter gene CAT as a percentage of the reference compound (WY-14,643 2 μM = 100%) ([3]; 2 μM): 113.1%
Activation of reporter gene CAT as a percentage of the reference compound (WY-14,643 2 μM = 100%) ([3]; 20 μM): 284.9%
Activation of reporter gene CAT as a percentage of the reference compound (WY-14,643 2 μM = 100%) ([3]; 100 μM): 421%
Structure (SMILES): COC(=O)C(C)(C)Sc1cccc(OCCc2ccc(Cl)cc2Cl)c1 [Example 4, methyl 2-[3-(2-(2,4-dichlorophenyl)ethoxy)phenylthio]isobutyrate]

Final b.w. [1]: 35.2 ± 1.3 g
Initial b.w. [1]: 33.7 ± 0.7 g
Variation % (final b.w.) vs control [1]: +24%
Variation % (initial b.w.) vs control [1]: +6%
Structure (SMILES): CC(C)(Oc1ccc(CCNC(=O)c2ccc(Cl)cc2)cc1)C(=O)O [Bezafibrate, bezafibrate, reference compound]
Variation % (glucose) vs control [2, 4]: +3%
Variation % (glucose) vs control [2, 9]: +2%
Variation % (AUC glucose at OGTT) vs control [2, 10]: −13%
AUC glucose at OGTT [2, 11]: 44476 ± 1827 a.u.
Variation % (glucose) vs control [2, 5]: −13%
Variation % (HDL-cholesterol) vs control [2, 6]: +14%
Variation % (triglycerides) vs control [2, 6]: −7%
Glucose (plasma) [2, 6]: 536 ± 22 mg/dL
Variation % (fructosamine) vs control [2, 12]: +26%
Variation % (plasma glucose) vs control [2, 12]: +18%
Fructosamine (plasma) [2, 12]: 1.01 ± 0.04Δ mM
HDL-choles. (plasma) [2, 12]: 93.8 ± 3.8 mg/dL
Triglycerides (plasma) [2, 12]: 88.3 ± 12.7 mg/dL
Glucose [2, 13]: 421 ± 30 mg/dL
Glucose [2, 5]: 298 ± 21 mg/dL
Glucose [2, 7]: 503 ± 21 mg/dL

Activation of reporter gene CAT as a percentage of the reference compound (WY-14,643 2 μM = 100%) ([3]; 2 μM): 44.9%
Activation of reporter gene CAT as a percentage of the reference compound (WY-14,643 2 μM = 100%) ([3]; 20 μM): 129.9%
Activation of reporter gene CAT as a percentage of the reference compound (WY-14,643 2 μM = 100%) ([3]; 100 μM): 232.1%
Variation % (final b.w.) vs control [2, 6]: +27%
Variation % (final b.w.) vs control [2, 15]: +7%
Structure (SMILES): COC(=O)C(C)(C)Sc1cccc(OCCc2ccc(Cl)cc2)c1 [Example 1, methyl 2-[3-[2-(4-chlorophenyl)ethoxy]phenylthio]isobutyrate]
Variation % (glucose) vs control [2, 4]: −38%
Variation % (glucose) vs control [2, 9]: −48%
Variation % (AUC glucose at OGTT) vs control [2, 10]: −52%
AUC glucose at OGTT [2, 11]: 24527 ± 889 a.u.
Variation % (glucose) vs control [2, 5]: −58%
Variation % (HDL-cholesterol) vs control [2, 6]: +20%
Variation % (triglycerides) vs control [2, 6]: −53%
Glucose (plasma) [2, 6]: 206 ± 8Δ mg/dl
Variation % (fructosamine) vs control [2, 12]: −49%
Variation % (plasma glucose) vs control [2, 12]: −55%
Fructosamine (plasma) [2, 12]: 0.41 ± 0.04 mM
HDL-choles. (plasma) [2, 12]: 98.0 ± 3.5[…] mg/dl
Triglycerides (plasma) [2, 12]: 45.3 ± 2.3 mg/dL
Glucose [2, 13]: 216 ± 16 mg/dL
Glucose [2, 5]: 144 ± 3Δ mg/dl
Glucose [2, 7]: 303 ± 16 mg/dL
Final b.w. [2, 8]: 35.9 ± 0.6 g
Variation % (initial b.w.) vs control ([2]; Experiment I): +2%
Initial b.w. ([2]; Experiment I): 32.3 ± 0.3 g
Variation % (glucose) vs control ([2]; Experiment II, after 9 days' treatment, postabsorption, 8 hours after last treatment): −36%
Variation % (AUC glucose at OGTT) vs control ([2]; Experiment II, after 11 days' treatment): −40%
AUC glucose at OGTT [2, 14]: 25929 ± 1299 a.u.
Variation % (glucose) vs control [2, 14]: −36%
Variation % (HDL-cholesterol) vs control [2, 15]: +43%
Variation % (triglycerides) vs control [2, 15]: −48%
Glucose (plasma) [2, 15]: 356 ± 30 mg/dL
Variation % (plasma glucose) vs control [2, 16]: −38%
HDL-choles. (plasma) [2, 16]: 123.7 ± 1.9 mg/dL
Triglycerides (plasma) [2, 16]: 45.1 ± 1.4 mg/dL
Glucose ([2]; Experiment II, after 9 days' treatment, postabsorption (fasting 9 a.m. to 5 p.m.), 8 hours after last treatment): 223 ± 20Δ mg/dl
Glucose [2, 14]: 158 ± 7 mg/dL
Final b.w. ([2]; Experiment II, final body weight after 12 days' treatment): 40.3 ± 0.8[…] g
Variation % (initial b.w.) vs control ([2]; Experiment II): −1%
Initial b.w. ([2]; Experiment II): 38.6 ± 0.4 g

Activation of reporter gene CAT as a percentage of the reference compound (WY-14,643 2 μM = 100%) ([3]; 2 μM): 98.1%
Activation of reporter gene CAT as a percentage of the reference compound (WY-14,643 2 μM = 100%) ([3]; 20 μM): 360%
Activation of reporter gene CAT as a percentage of the reference compound (WY-14,643 2 μM = 100%) ([3]; 100 μM): 462.7%
Structure (SMILES): COC(=O)C(C)(C)Sc1cccc(OCCc2ccc3ccccc3c2)c1 [Example 10, methyl 2-[3-[2-(2-naphthyl)ethoxy]phenylthio]isobutyrato]
